Measurements reported in patent US20230027864A1, “COMPOSITIONS AND METHODS FOR DELIVERY OF AGENTS TO IMMUNE CELLS” (ModernaTX, Inc., priority 2018, published 2023).

These compounds were tested on T cells (assay: Additional LNPs: T cell transfection in vitro, mOX40L mRNA, labeled LNPs). Conditions: ionizable lipid component, FIG. 43.
Format: cell-based, human
Description: In this Example, additional LNPs comprising various lipid components and at different ratios were made and tested for their ability to transfect T cells in vitro. Transfection was performed as in Example 5 using LNPs encapsulating an mRNA encoding mouse OX40L. LNPs were labeled and the results were determined for the mean % cells with LNPs associated, the mean % cells expressing mOX40L and the % of LNP-associated cells expressing mOX40L, as described hereinbefore.

Compound | immune cell delivery potentiating ability in T cells, amino lipid panel
CCCCCCCCCOC(=O)CCCCCCCN(CCCCCCCC(=O)OC(CCCCCCCC)CCCCCCCC)CCCNc1c(NCC)c(=O)c1=O [Compound I-292] | exhibited immune cell delivery potentiating ability in T cells
CCCCCCCCC(C)OC(=O)CCCCCCCN(CCO)CCCCCCCC(=O)OC(CCCCCCCC)CCCCCCCC (stereo not drawn) [Compound I-48] | exhibited immune cell delivery potentiating ability in T cells
CCCCCCCCC(C)OC(=O)CCCCCN(CCCCCCCC(=O)OC(CCCCCCCC)CCCCCCCC)CCCNc1c(NC)c(=O)c1=O (stereo not drawn) [Compound I-349] | exhibited immune cell delivery potentiating ability in T cells
CCCCCCCCC(C)OC(=O)CCCCCCCN(CCCCCCCC(=O)OC(CCCCCCCC)CCCCCCCC)CCCNc1c(NC)c(=O)c1=O (stereo not drawn) [Compound I-347] | exhibited immune cell delivery potentiating ability in T cells
CCCCCCCCCC(=O)OCCCCCCCN(CCCCCCCC(=O)OC(CCCCCCCC)CCCCCCCC)CCCNc1c(NC)c(=O)c1=O [Compound I-309] | exhibited immune cell delivery potentiating ability in T cells
CCCCCCCCCOC(=O)CCCCCCCN(CCCCCCCC(=O)OC(CCCCCCCC)CCCCCCCC)CCCCNc1c(NC)c(=O)c1=O [Compound I-351] | exhibited immune cell delivery potentiating ability in T cells
CCCCCCCCCCCOC(=O)CCCCCN(CCCCCCCC(=O)OC(CCCCCCCC)CCCCCCCC)CCCNc1c(NC)c(=O)c1=O [Compound I-317] | exhibited immune cell delivery potentiating ability in T cells
CCCCCCCCC(CC)OC(=O)CCCCCN(CCCCCCCC(=O)OC(CCCCCCCC)CCCCCCCC)CCCNc1c(NC)c(=O)c1=O (stereo not drawn) [Compound I-350] | exhibited immune cell delivery potentiating ability in T cells
CCCCCCCCC(CCC)OC(=O)CCCCCCCN(CCCCCCCC(=O)OC(CCCCCCCC)CCCCCCCC)CCCNc1c(NC)c(=O)c1=O (stereo not drawn) [Compound I-348] | exhibited immune cell delivery potentiating ability in T cells
CCCCCCCCC(CC)OC(=O)CCCCCCCN(CCCCCCCC(=O)OC(CCCCCCCC)CCCCCCCC)CCCCNc1c(NC)c(=O)c1=O (stereo not drawn) [Compound I-352] | exhibited immune cell delivery potentiating ability in T cells

Same assay, conditions: phospholipid component, FIG. 45

Compound | immune cell delivery potentiating ability in T cells, helper lipid panel
CCCCCCCCCCCCCCCC(=O)OC[C@H](COP(=O)([O-])OCC[N+](C)(C)C)OC(=O)CCCCCCCCCCCCCCC [DPPC, 1,2-dipalmitoyl-sn-glycero-3-phosphocholine, reference compound] | exhibited immune cell delivery potentiating ability in T cells
CCCCCCCCCCCCCC(=O)OC[C@H](COP(=O)([O-])OCC[N+](C)(C)C)OC(=O)CCCCCCCCCCCCC [DMPC, 1,2-dimyristoyl-sn-glycero-phosphocholine, reference compound] | exhibited immune cell delivery potentiating ability in T cells

Same assay, conditions: structural component, FIG. 44

Compound | immune cell delivery potentiating ability in T cells, sterol panel
CCC(/C=C/[C@@H](C)[C@H]1CC[C@H]2[C@@H]3CC=C4C[C@@H](O)CC[C@]4(C)[C@H]3CC[C@]12C)(CC)CC [Compound 5-166] | exhibited immune cell delivery potentiating ability in T cells
CCC(/C=C/[C@@H](C)[C@H]1CC[C@H]2[C@@H]3CC=C4C[C@@H](O)CC[C@]4(C)[C@H]3CC[C@]12C)CC [Compound 5-160] | exhibited immune cell delivery potentiating ability in T cells
CC[C@H](CC[C@@H](C)[C@H]1CC[C@H]2[C@@H]3CC[C@H]4C[C@@H](O)CC[C@]4(C)[C@H]3CC[C@]12C)C(C)C [Compound S-144, β-sitostanol] | exhibited immune cell delivery potentiating ability in T cells
CC(C)C(CC[C@@H](C)[C@H]1CC[C@H]2[C@@H]3CC[C@H]4C[C@@H](O)CC[C@]4(C)[C@H]3CC[C@]12C)C(C)C [Compound 5-173] | exhibited immune cell delivery potentiating ability in T cells
CC(C)[C@H](C)CC[C@@H](C)[C@H]1CC[C@H]2[C@@H]3CC[C@H]4C[C@@H](O)CC[C@]4(C)[C@H]3CC[C@]12C [Compound 5-159] | exhibited immune cell delivery potentiating ability in T cells
CC(C)C(/C=C/[C@@H](C)[C@H]1CC[C@H]2[C@@H]3CC=C4C[C@@H](O)CC[C@]4(C)[C@H]3CC[C@]12C)C(C)C [Compound 5-167] | exhibited immune cell delivery potentiating ability in T cells
CC(C)[C@@H](C)CC[C@@H](C)[C@H]1CC[C@H]2[C@@H]3CC[C@H]4C[C@@H](O)CC[C@]4(C)[C@H]3CC[C@]12C [Compound S-151] | exhibited immune cell delivery potentiating ability in T cells
CC(C)[C@@H](C)/C=C/[C@@H](C)[C@H]1CC[C@H]2[C@@H]3CC=C4C[C@@H](O)CC[C@]4(C)[C@H]3CC[C@]12C [Compound S-148, brassicasterol] | exhibited immune cell delivery potentiating ability in T cells
CC[C@H](/C=C/[C@@H](C)[C@H]1CC[C@H]2[C@@H]3CC=C4C[C@@H](O)CC[C@]4(C)[C@H]3CC[C@]12C)C(C)C [Compound S-140] | exhibited immune cell delivery potentiating ability in T cells
CC(C)[C@H](C)CC[C@@H](C)[C@H]1CC[C@H]2[C@@H]3CC=C4C[C@@H](O)CC[C@]4(C)[C@H]3CC[C@]12C [Compound S-143, campesterol] | exhibited immune cell delivery potentiating ability in T cells

Same assay, conditions: third series, against Compound I-18 formulations, FIG. 47

Compound | immune cell delivery potentiating ability in T cells, other ionizable lipids
CCCCCCCCCCC(O)CN(CCCCC1NC(=O)C(CCCCN(CC(O)CCCCCCCCCC)CC(O)CCCCCCCCCC)NC1=O)CC(O)CCCCCCCCCC (stereo not drawn) [CKK-E12, reference compound] | exhibited immune cell delivery potentiating ability in T cells
CCCCCC=CCC=CCCCCCCCCC(CCCCCCCCC=CCC=CCCCCC)OC(=O)CCCN(C)C (stereo not drawn) [MC3, heptatriaconta-6,9,28,31-tetraen-19-yl 4-(dimethylamino)butanoate, reference compound] | exhibited immune cell delivery potentiating ability in T cells

Each compound was assayed on T cells (assay: LNP association and GFP mRNA expression in T cells of human PBMCs). Conditions: ionizable lipid component of the LNP, FIG. 30.
Format: cell-based
Description: In a second series of experiments, additional compounds, were tested in the LNPs for their ability to enhance delivery to T cells. For these experiments, the association of the LNP with cells and the expression of mRNA-encoding protein within the transfected cells was assessed at the cell-by-cell level. Peripheral blood mononuclear cells (PBMCs) from human donors were used. PBMCs were predominately T cells (40-60%), B cells (3-15%), and monocytes (15-35%), but also contained small numbers of other cell types. LNPs were incubated with serum or PBS for 30 minutes and then added to the PBMCs. The LNP concentration was 0.050 mg/ml, the LNP volume was 0.1 ml.
LNPs contained 0.1% Rhodamine-DOPE in addition to the other LNP components to facilitate detection. Thus, the ratios set forth in the tables below include 0.1 for the rhodamine label. For example, 50:10:10:27.9:2:0.1 AL:DSPC:chol:sterol:Cmp 428 indicates 50% amino lipid as the ionizable lipid, 10% DSPC as the phospholipid, 10% cholesterol, 27.9% phytosterol, 2% Compound 428 as the PEG lipid and 0.1% for the rhodamine-DOPE label. To prepare a non-labeled LNP, the same ratios are used except that the 0.1% rhodamine label is omitted and an additional 0.1% of structural lipid (cholesterol or cholesterol/phytosterol blend) is used (e.g., 27.9% becomes 28%).
Cells were sorted by flow cytometry into subsets based on expression of certain markers: CD3 (T cells), CD20 (B cells), and CD3-, CD20-, CD14+(Monocytes).
mRNA encoding GFP was used as a model agent to effect expression of an intracellular protein.
When conducting flow cytometry, the Y-axis was signal from the rhodamine tag on the LNP and the X-axis was the GFP signal showing expression of the protein.
The “associated” population is any rhodamine+ and/or GFP+ cell and the percent of these cells was calculated by dividing by the total number of cells. The “expression” population is any GFP+ cell and the percent of these cells was calculated by dividing by the total number of cells. The percent of associated cells expressing was obtained by dividing the % expressing cells by the % associated cells.

Compound | immune cell delivery potentiating ability in T cells, amino lipid panel
CCCCCCCCCOC(=O)CCCCCCCN(CCCCCCCC(=O)OC(CCCCCCCC)CCCCCCCC)CCCNc1c(NCC)c(=O)c1=O [Compound I-292] | exhibited immune cell delivery potentiating ability in T cells
CCCCCCCCC(C)OC(=O)CCCCCCCN(CCO)CCCCCCCC(=O)OC(CCCCCCCC)CCCCCCCC (stereo not drawn) [Compound I-48] | exhibited immune cell delivery potentiating ability in T cells
CCCCCCCCC(CCC)OC(=O)CCCCCCCN(CCCCCCCC(=O)OC(CCCCCCCC)CCCCCCCC)CCCNS(C)(=O)=O (stereo not drawn) [Compound I-330] | exhibited immune cell delivery potentiating ability in T cells
CCCCCCCCC(CCC)OC(=O)CCCCCCCN(CCO)CCCCCCCC(=O)OC(CCCCCCCC)CCCCCCCC (stereo not drawn) [Compound I-50] | exhibited immune cell delivery potentiating ability in T cells
CCCCCCCCC(CCC)OC(=O)CCCCCCCN(CCCO)CCCCCCCC(=O)OC(CCCCCCCC)CCCCCCCC (stereo not drawn) [Compound I-328] | exhibited immune cell delivery potentiating ability in T cells

Same assay, conditions: phospholipid component of the LNP, FIG. 32

Compound | immune cell delivery potentiating ability in T cells, helper lipid panel
CCCCCCCCCCCCCCCCCC(=O)OC[C@H](COP(=O)([O-])OCC[N+](C)(C)C)OC(=O)CCCCCCCCCCCCCCCCC [DSPC, 1,2-distearoyl-sn-glycero-3-phosphocholine, reference compound] | exhibited immune cell delivery potentiating ability in T cells
